Square brackets hold non-standard residues; d marks the D form. Ends that are not written are not given here. pGlu = O=C1CC[C@@H](C(=O)O)N1
Tested on: Clytia hemisphaerica planula larvae
Assay: Metamorphosis (settlement) induction of planula larvae by synthetic GLW-amide neuropeptides
Type: in vivo
Details: for Metamorphosis efficiency, Average: peptide concentration not given
Experimental: (1) Culture planula larvae in MFSW containing penicillin and streptomycin. (2) Wash the surface of large glass slides (75 mm×50 mm) with warm tap water (40–50°C) and dry. Place them in 100 mm diameter petri dishes. (3) Dilute GLW-amide peptide stock solution (1–5 mM in distilled water, stored at −20°C) just prior to use in MFSW (4 ml/large slide). Recommended final concentration for GLW-amide-6 is 0.5 µM. (4) Using a plastic transfer pipette, carefully pour 0.1 ml/cm^2 or more peptide-containing sea water over the glass slide (4 ml for large glass slides, Fig. S1F). (5) Transfer 2.5–3-day-old planulae using a glass pipette. Disperse them as the settlement starts quickly. (6) Cover the dish with a lid to minimize the water evaporation and keep the dish undisturbed. (7) Planula will be firmly settled in several hours after peptide treatment. Transfer slides to polyp tanks, not later than 16 h after induction. (8) Start to feed smashed Artemia once the primary polyps have extended tentacles and open mouths. (9) Once the colony contains multiple gastrozooids, it can be fed normally with live Artemia nauplii.
Metamorphosis of planula larvae was induced by transferring them onto glass slides covered with at least 0.1 ml/cm^2 of sea water containing synthetic neuropeptides (Fig. 2E). A selection of synthetic amidated peptides derived from the neuropeptide precursors Che-PP2 and Che-PP11 ([Takeda et al., 2018]) were tested as metamorphosis inducers (Table 2) on 3-day-old planula larvae obtained by crossing Z13 (male) and Z11 (female) strains. Planula attach firmly onto the slide within a few hours (Fig. 1C, left). Metamorphosis efficiency was measured by successful settlement on the slide at 12 h, as the timing of stalk extension is variable, from several hours to days.

Row | Substance | Planula settlement efficiency (previous conditions, 1 µM peptide, variable (Fig. 7)) [%] | Planula settlement on the glass slide (0.3 µM peptide, settlement scored at 12 h, 5 repeats of 20 planulae (Fig. 7)) | Lowest concentration active in inducing metamorphosis (3-day-old planulae (Z13 x Z11) on glass slide in sea water containing peptide, settlement scored at 12 h, 5 repeats of 20 planulae (Fig. 7)) [µM] | Planula settlement efficiency (newly designed peptide, concentration not printed at this place (Fig. 7)) [%] | Metamorphosis efficiency, Average (substrate agarose (2%), sample size 96–98, 4 repeats) [%] | Metamorphosis efficiency, Average (substrate glass, sample size 90–99, 5 repeats) [%] | Metamorphosis efficiency, Average (substrate plastic (polypropyrene), sample size 90–100, 5 repeats) [%]
1 | GNPPGLW-NH2 [GLW-amide-2, synthetic GLW-amide neuropeptide from Clytia transcriptome (precursor PP11), previously used to trigger metamorphosis] | ≥ 40 |  |  |  |  |  | 
2 | [pGlu]QQAPKGLW-NH2 [GLW-amide-6, synthetic GLW-amide neuropeptide derived from precursor Che-PP11] |  | virtually all | 0.3 | ~100 | 96.5 | 98.6 | 99.9

Source: PMC7657476, “An improved whole life cycle culture protocol for the hydrozoan genetic model Clytia hemisphaerica” (Biology Open, 2020)
